Legend:
[1] = system: Euschistus heros (Neotropical Brown Stink Bug); assay: whole plant or invertebrate; type: in vivo; conditions: 120 h, application rate of 200 ppm, N2 nymphs on sprayed soybean leaves, 5 days after infestation, read-out: effect in at least one of the two categories (mortality or growth inhibition)
[2] = system: Myzus persicae (Green Peach Aphid); assay: whole plant or invertebrate; type: in vivo; conditions: 144 h, test rate of 24 ppm, systemic, roots of infested pea seedlings in test solution, 6 days
[3] = system: Plutella xylostella (Diamond Back Moth); assay: whole plant or invertebrate; type: in vivo; conditions: 120 h, application rate of 200 ppm, L2 larvae on treated artificial diet, 5 days after infestation, read-out: effect in at least one of the two categories (mortality or growth inhibition)
[4] = system: Myzus persicae (Green Peach Aphid); assay: whole plant or invertebrate; conditions: foliar, 144 h
[5] = system: Spodoptera littoralis (Egyptian Cotton Leaf Worm); assay: whole plant or invertebrate; conditions: in Gossypium barbadense, foliar, 72 h, read-out: control (mortality, anti-feeding effect, growth inhibition)
[6] = system: Diabrotica Balteata (Corn Root Worm); assay: Diabrotica balteata (Corn Root Worm); conditions: in Zea mays, 96 h, read-out: effect in at least one of the two categories (mortality or growth inhibition)
[7] = system: Bemisia tabaci (Cotton White Fly); conditions: in Gossypium hirsutum, foliar, 144 h
[8] = system: Tetranychus urticae (Two-Spotted Spider Mite); conditions: foliar, 192 h

Compound CCSc1cc(OC(C)(C)C(=O)O)cnc1-c1nc2cc(C(F)(F)F)ncc2n1C has a melting point of 161 to 163 °C.
For CCS(=O)(=O)c1cc(OC(F)(F)CBr)ccc1-c1nc2cc(C(F)(F)F)ncc2n1C, the melting point was 137 to 139 °C.
CCS(=O)(=O)c1cc(OC(C(=O)OC)S(C)(=O)=O)cnc1-c1nc2cc(C(F)(F)F)ncc2n1C (stereo not drawn) gave a melting point of 122 to 124 °C.
With CCS(=O)(=O)c1cc(OC(SC)C(N)=O)cnc1-c1nc2cc(C(F)(F)F)ncc2n1C (stereo not drawn) the melting point was 142 to 144 °C.
Compound CCS(=O)(=O)c1cc(OC(C)C(=O)OC)cnc1-c1nc2cc(C(F)(F)F)ncc2n1C (stereo not drawn) has a melting point of 131 to 133 °C.
CCOC(=O)C(C)(C)Oc1cnc(-c2nc3cc(C(F)(F)F)ncc3n2C)c(S(=O)(=O)CC)c1 showed a melting point of 145 to 147 °C.
For CCS(=O)(=O)c1cc(OC(C)(C)C(=O)O)cnc1-c1nc2cc(C(F)(F)F)ncc2n1C, the melting point was 242 to 244 °C.
In the case of CCS(=O)(=O)c1cc(OC(C)(C)C)cnc1-c1nc2cc(C(F)(F)F)ncc2n1C [Compound P5, 2-(5-tert-butoxy-3-ethylsulfonyl-2-pyridyl)-3-methyl-6-(trifluoromethyl)imidazo[4,5-c]pyridine], the percent effect (mortality or growth inhibition) at 200 ppm [1] is reported as at least 80%, the mortality at 24 ppm [2] is reported as at least 80% and the percent effect (mortality or growth inhibition) at 200 ppm [3] is reported as at least 80%. For the same compound, the mortality at 200 ppm [4] was at least 80%, the mortality at 200 ppm [5] was at least 80% and the mortality at 200 ppm [6] was at least 80%. The mortality at 200 ppm [7] was at least 80% and the mortality at 200 ppm [8] was at least 80%.
For CCS(=O)(=O)c1cc(OC(C)(C)CC#N)cnc1-c1nc2cc(C(F)(F)F)ncc2n1C [Compound P47, 3-[[5-ethylsulfonyl-6-[3-methyl-6-(trifluoromethyl)imidazo[4,5-c]pyridin-2-yl]-3-pyridyl]oxy]-3-methyl-butanenitrile], the percent effect (mortality or growth inhibition) at 200 ppm [1] was at least 80%, the mortality at 24 ppm [2] was at least 80% and the percent effect (mortality or growth inhibition) at 200 ppm [3] was at least 80%. It also gave a mortality at 200 ppm [4] of at least 80%, a mortality at 200 ppm [6] of at least 80% and a mortality at 200 ppm [7] of at least 80%. It also gave a mortality at 200 ppm [8] of at least 80%.
For CCS(=O)(=O)c1cc(OC2CCC2)cnc1-c1nc2cc(C(F)(F)F)ncc2n1C [Compound P62, 2-[5-(cyclobutoxy)-3-ethylsulfonyl-2-pyridyl]-3-methyl-6-(trifluoromethyl)imidazo[4,5-c]pyridine], the percent effect (mortality or growth inhibition) at 200 ppm [1] was at least 80%, the percent effect (mortality or growth inhibition) at 200 ppm [3] was at least 80% and the mortality at 200 ppm [4] was at least 80%. It also gave a mortality at 200 ppm [5] of at least 80%, a mortality at 200 ppm [6] of at least 80% and a mortality at 200 ppm [7] of at least 80%. For the same compound, the mortality at 200 ppm [8] was at least 80%.
With CCS(=O)(=O)c1cc(OC(C)C)cnc1-c1nc2cc(SC(F)(F)F)ncc2n1C [Compound P71, 2-(3-ethylsulfonyl-5-isopropoxy-2-pyridyl)-3-methyl-6-(trifluoromethylsulfanyl)imidazo[4,5-c]pyridine] the percent effect (mortality or growth inhibition) at 200 ppm [1] was at least 80%, the percent effect (mortality or growth inhibition) at 200 ppm [3] was at least 80% and the mortality at 200 ppm [4] was at least 80%. For the same compound, the mortality at 200 ppm [5] was at least 80%, the mortality at 200 ppm [6] was at least 80% and the mortality at 200 ppm [7] was at least 80%. For the same compound, the mortality at 200 ppm [8] was at least 80%.
With CCS(=O)(=O)c1cc(OC(C)(C)C(F)(F)F)cnc1-c1nc2cc(C(F)(F)F)ncc2n1C [Compound P76, 2-[3-ethylsulfonyl-5-(2,2,2-trifluoro-1,1-dimethyl-ethoxy)-2-pyridyl]-3-methyl-6-(trifluoromethyl)imidazo[4,5-c]pyridine] the percent effect (mortality or growth inhibition) at 200 ppm [1] was at least 80%, the percent effect (mortality or growth inhibition) at 200 ppm [3] was at least 80% and the mortality at 200 ppm [4] was at least 80%. For the same compound, the mortality at 200 ppm [5] was at least 80%, the mortality at 200 ppm [6] was at least 80% and the mortality at 200 ppm [7] was at least 80%. For the same compound, the mortality at 200 ppm [8] was at least 80%.
Compound CCS(=O)(=O)c1cc(OCC2(C#N)CC2)cnc1-c1nc2cc(C(F)(F)F)ncc2n1C [Compound P79, 1-[[5-ethylsulfonyl-6-[3-methyl-6-(trifluoromethyl)imidazo[4,5-c]pyridin-2-yl]-3-pyridyl]oxymethyl]cyclopropanecarbonitrile] has a percent effect (mortality or growth inhibition) at 200 ppm [1] of at least 80%, a mortality at 24 ppm [2] of at least 80% and a percent effect (mortality or growth inhibition) at 200 ppm [3] of at least 80%. For the same compound, the mortality at 200 ppm [4] was at least 80%, the mortality at 200 ppm [5] was at least 80% and the mortality at 200 ppm [6] was at least 80%. It also gave a mortality at 200 ppm [7] of at least 80% and a mortality at 200 ppm [8] of at least 80%.

From US20200216441A1, “PESTICIDALLY ACTIVE HETEROCYCLIC DERIVATIVES WITH SULFUR CONTAINING SUBSTITUENTS” (SYNGENTA PARTICIPATIONS AG, priority 2017, published 2020)
